Reference: PubChem BioAssay AID434938 (Broad Institute, 2010)
Inconclusive results are not listed. Calls of active or inactive are those of the source.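 Rule for the calls: active = EC50 no greater than ten times the top concentration tested; inconclusive = flat fit with inhibition between 30% and 70%, or an invalid poor-quality fit; inactive = EC50 beyond ten times the top concentration.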

What follows are molecules tested on S. cerevisiae GRE-lacZ reporter, Hsp90 function, luminescence (assay: GRE-lacZ reporter signal reduction in yeast, SAR follow-up, mechanism study for C. albicans Hsp90 inhibitor project, S. cerevisiae, luminescence (AID 434938)).

Row | Compound | EC50
1 | O=C(Oc1c(Cl)cc(Cl)c2cccnc12)c1cccs1 | 12 µM
2 | O=C(Nc1nnc(SCc2ccc(Cl)cc2)s1)c1ccc2ccccc2n1 | > 26 µM (inactive)
3 | COc1ccc(-c2nnc(NC(=O)c3ccc(F)cc3)o2)cc1 | > 26 µM (inactive)
4 | Cc1ccc(C(=O)c2coc3c2C(=O)C(=O)c2ccccc2-3)cc1 | 7.66 µM
5 | O=C(Nc1sc2c(c1C(=O)c1ccc(Cl)cc1)CCCC2)c1cccnc1 | 15.1 µM
6 | O=c1c2cc(Br)ccc2nc(-c2cccc(C(F)(F)F)c2)n1O | 10.2 µM
7 | Cc1ccc(Nc2nc(N)c([N+](=O)[O-])c(N3CCC(C)CC3)n2)cc1C | 9.91 µM
8 | Clc1ccc2c(c1)C(c1cccs1)=NNC(c1cccnc1)=N2 | 26.7 µM
9 | Cc1oc2c(F)c(F)c(F)c(F)c2c1S(=O)(=O)Nc1cccc(C(F)(F)F)c1 | 8.89 µM
10 | COc1ccc(-n2nc(C(=O)NCC(=O)N3CCN(c4ccccc4)CC3)c3ccccc3c2=O)c(OC)c1 | > 26 µM (inactive)
11 | Cc1ccc(C(=O)Nc2cccc(-c3cn4ccccc4n3)c2)cc1 | > 26 µM (inactive)
12 | O=C(Nc1nnc(CCc2ccccc2)s1)c1ccco1 | > 26 µM (inactive)
13 | CCc1ccc2c(c1)/C(=C/C(=O)c1cccs1)C(=O)N2 | 2.91 µM
14 | Cc1ccc(/C=C/C(=O)c2ccccc(=O)c2O)cc1C | 8.43 µM
15 | CCOC(=O)c1c(-c2ccccc2Cl)cn2ccccc12 | 16.5 µM
16 | CCCC(=O)NC(c1ccccc1)c1ccc2cccnc2c1O (centres undefined) | > 26 µM (inactive)
17 | O=C(Nc1nc(-c2ccccn2)cs1)c1ccc(Br)s1 | 4.74 µM
18 | O=C(Nc1nnc(-c2ccc3c(c2)CCCC3)o1)c1ccc(Cl)cc1Cl | 2.16 µM
19 | CC(C)COCc1ccc(O)c2ncccc12 | > 26 µM (inactive)
